Our source for the EC50 values is ChEMBL document CHEMBL5725355, “Methods for treating seizure disorders and pain” (2017).

The term EC50 denotes the concentration needed to bring the measured effect to its halfway point.

Structures are written as SMILES.

Test [1] is described as follows: (§1) Voltage-Clamp Assay: All experiments were conducted at room temperature (22-24° C.) with an EPC-10 amplifier and Pulse software (HEKA, Lambrecht/Pfalz, Germany) in the whole-cell mode of the patch-clamp technique. Human embryonic kidney (HEK)-293 cell lines stably expressing hNav1.1, hNav1.5, hNav1.7 channels (generously provided by Dr. Christopher Lossin, University of California Davis), hNav1.4 (Frank Lehmann-Horn, University of Ulm), or hKv2.1 channels (James Trimmer, University of California Davis) were bathed in extracellular solution containing (in mM): 160 NaCl; 4.5 KCl; 1 MgCl2; 2 CaCl2; 10 HEPES [pH was adjusted to 7.4 using NaOH (310 mOsm)]. Pipettes were filled with intracellular solution containing (in mM): 145 KF; 2 MgCl2; 10 ethylene glycol tetraacetic acid; 10 HEPES (pH adjusted to 7.2 with KOH; 300 mOsm). Neuroblastoma N1E-115 cells (ATCC, Manassa, Va., USA) expressing Nav1.2 were patched with a CsF internal solution consisting of (in mM): 10 NaF; 110 CsF; 20 CsCl; 2 ethylene glycol tetraacetic acid; 10 HEPES (CsOH to pH 7.35; 300 mOsm). All pipette tip resistances were 2-4 MΩ. Series resistances of 3-10 MΩ were compensated 40-80%. All cells were voltage-clamped to a holding potential of −90 mV unless otherwise specified. The sampling frequency was 5 kHz. Na+ currents were elicited by 30-ms pulse to 0 mV from −90 mV applied every 10 s. […]. In general terms: In patch-clamp work, channel activity is measured electrically.

The nature of test [2]: as §1. The source holds these as a separate data set.
A short description of test [3]: as §1. The source holds these as a separate data set.
Test [4] is described as follows: as §1. The source holds these as a separate data set.
Test [5] is described as follows: as §1. The source holds these as a separate data set.
Test [6] is described as follows: as §1. The source holds these as a separate data set.

On to `Nc1nc2ccc(SC(F)(F)F)cc2s1`, for which the EC50 in test [1] is 4.5 µM; in test [2], 7.9 µM; in test [3] it was 22.3 µM; in test [4] it was 5.8 µM; in test [5], 2.2 µM; in test [6] it was 6.9 µM.
